Key:
[1] = In vitro cytotoxicity assay; format: cell-based; conditions: rat, L-6 rat skeletal myoblasts
[2] = pKa and Log D7.4 determination; format: physicochemical
Procedure: The ionization constant (pKa), octanol-pH 7.4 buffer partition coefficient (Log D7.4), solubility in biorelevant buffers (FaSSIF-V2, FeSSIF-V2, FaSSGF and pH 7.4 phosphate buffered saline (PBS)) and Caco-2 permeability were determined according to previously published methods ([10]).

[3] = system: L. guyanensis; assay: Leishmania intramacrophage in vitro assay; format: cell-based; conditions: L. guyanensis MHOM/PE/02/PER 054/0
Procedure: (§1) A drug incubation period of 96 h was applied, and cells were stained with Giemsa for microscopic evaluation of cellular amastigote burdens. Percentage reduction compared to the burden in the infected non-treated control wells was used as a measure for drug activity.

[4] = system: L. major; assay: Leishmania intramacrophage in vitro assay; format: cell-based
Procedure: as §1

[5] = system: L. infantum; assay: Leishmania intramacrophage in vitro assay; format: cell-based
Procedure: as §1

[6] = target: T1, human cytochrome bc1 complex (Homo sapiens, UniProt P00156); assay: Human complex III inhibition assay; format: biochemical
T1 construct: Preparation of mitochondria from a human cell line (THP-1); endogenous in cells; host or cells: THP-1 (human) mitochondria
Procedure: Preparation of mitochondria from a human cell line (THP-1) was performed following published procedure ([21]). The protocol for the assay has been described in ([22]).

[7] = target: T2, β2 (Homo sapiens, UniProt P07550); assay: In vitro pharmacology panel (Eurofins); format: binding; conditions: read-out: activity (% of DMSO control)
T2 construct: purchased Eurofins (Cerep/DiscoverX SafetyScreen44 in vitro pharmacology panel)
From the text: (§2) Listed values represent the percent change relative to the DMSO control activity. When an IC50 had to be determined, eight different concentrations were included. All values are the mean of assay readout duplicates.

[8] = target: T3, dopamine transporter (Homo sapiens, UniProt Q01959); assay: In vitro pharmacology panel (Eurofins); format: binding; conditions: read-out: activity (% of DMSO control)
T3 construct: purchased Eurofins (Cerep/DiscoverX SafetyScreen44 in vitro pharmacology panel)
From the text: as §2

[9] = target: T4, H1 (Homo sapiens, UniProt P35367); assay: In vitro pharmacology panel (Eurofins); format: binding; conditions: read-out: activity (% of DMSO control)
T4 construct: purchased Eurofins (Cerep/DiscoverX SafetyScreen44 in vitro pharmacology panel)
From the text: as §2

[10] = target: T5, ETA (Homo sapiens, UniProt P25101); assay: In vitro pharmacology panel (Eurofins); format: binding; conditions: read-out: activity (% of DMSO control)
T5 construct: purchased Eurofins (Cerep/DiscoverX SafetyScreen44 in vitro pharmacology panel)
From the text: as §2

[11] = target: T6, μ (MOP) (Homo sapiens, UniProt P35372); assay: In vitro pharmacology panel (Eurofins); format: binding; conditions: read-out: activity (% of DMSO control)
T6 construct: purchased Eurofins (Cerep/DiscoverX SafetyScreen44 in vitro pharmacology panel)
T6 sequence (P35372 whole entry): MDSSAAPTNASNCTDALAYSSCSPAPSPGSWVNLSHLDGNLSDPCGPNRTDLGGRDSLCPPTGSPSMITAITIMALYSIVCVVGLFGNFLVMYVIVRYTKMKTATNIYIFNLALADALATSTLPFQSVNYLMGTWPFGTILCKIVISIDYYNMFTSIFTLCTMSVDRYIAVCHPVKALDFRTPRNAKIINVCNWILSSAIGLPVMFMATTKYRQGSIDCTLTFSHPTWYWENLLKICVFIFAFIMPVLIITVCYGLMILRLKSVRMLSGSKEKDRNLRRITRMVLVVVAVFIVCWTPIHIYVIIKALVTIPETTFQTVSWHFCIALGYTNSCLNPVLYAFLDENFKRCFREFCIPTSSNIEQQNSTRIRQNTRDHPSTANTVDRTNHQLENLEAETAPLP
From the text: as §2

[12] = target: T7, CCK1 (CCKA) (Homo sapiens, UniProt P32238); assay: In vitro pharmacology panel (Eurofins); format: binding; conditions: read-out: activity (% of DMSO control)
T7 construct: purchased Eurofins (Cerep/DiscoverX SafetyScreen44 in vitro pharmacology panel)
From the text: as §2

[13] = target: T8, M1 (Homo sapiens, UniProt P11229); assay: In vitro pharmacology panel (Eurofins); format: binding; conditions: read-out: activity (% of DMSO control)
T8 construct: purchased Eurofins (Cerep/DiscoverX SafetyScreen44 in vitro pharmacology panel)
T8 sequence (P11229 whole entry): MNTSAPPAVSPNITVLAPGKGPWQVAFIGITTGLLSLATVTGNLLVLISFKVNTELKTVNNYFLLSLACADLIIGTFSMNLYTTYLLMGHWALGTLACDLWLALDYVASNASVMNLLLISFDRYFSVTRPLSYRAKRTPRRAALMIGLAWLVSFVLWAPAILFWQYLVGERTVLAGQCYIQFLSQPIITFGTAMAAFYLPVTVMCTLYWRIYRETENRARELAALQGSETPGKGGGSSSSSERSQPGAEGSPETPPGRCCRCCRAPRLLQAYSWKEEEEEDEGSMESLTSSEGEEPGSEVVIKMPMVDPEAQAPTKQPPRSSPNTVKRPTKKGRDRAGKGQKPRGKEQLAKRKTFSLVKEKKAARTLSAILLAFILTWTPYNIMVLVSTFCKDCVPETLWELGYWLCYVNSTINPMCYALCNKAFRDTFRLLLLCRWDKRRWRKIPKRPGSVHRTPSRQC
From the text: as §2

[14] = target: T9, 5-HT2A (Homo sapiens, UniProt P28223); assay: In vitro pharmacology panel (Eurofins); format: binding; conditions: read-out: activity (% of DMSO control)
T9 construct: purchased Eurofins (Cerep/DiscoverX SafetyScreen44 in vitro pharmacology panel)
T9 sequence (P28223 whole entry): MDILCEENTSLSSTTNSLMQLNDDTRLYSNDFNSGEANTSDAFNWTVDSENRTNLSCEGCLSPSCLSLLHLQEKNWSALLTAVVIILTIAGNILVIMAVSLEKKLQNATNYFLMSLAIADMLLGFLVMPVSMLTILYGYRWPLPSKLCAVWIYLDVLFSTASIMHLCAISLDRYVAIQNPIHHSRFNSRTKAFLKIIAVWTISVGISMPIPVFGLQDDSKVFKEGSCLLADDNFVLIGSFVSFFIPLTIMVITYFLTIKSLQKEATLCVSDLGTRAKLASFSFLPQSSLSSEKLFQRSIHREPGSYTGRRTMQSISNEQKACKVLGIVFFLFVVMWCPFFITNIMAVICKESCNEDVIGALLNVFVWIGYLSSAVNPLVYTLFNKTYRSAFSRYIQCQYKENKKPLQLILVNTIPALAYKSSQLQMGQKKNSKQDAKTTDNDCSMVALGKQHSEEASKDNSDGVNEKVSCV
From the text: as §2

[15] = target: T10, 5-HT transporter (Homo sapiens, UniProt P31645); assay: In vitro pharmacology panel (Eurofins); format: binding; conditions: read-out: activity (% of DMSO control)
T10 construct: purchased Eurofins (Cerep/DiscoverX SafetyScreen44 in vitro pharmacology panel)
From the text: as §2

[16] = target: T11, β1 (Homo sapiens, UniProt P08588); assay: In vitro pharmacology panel (Eurofins); format: binding; conditions: read-out: activity (% of DMSO control)
T11 construct: purchased Eurofins (Cerep/DiscoverX SafetyScreen44 in vitro pharmacology panel)
T11 sequence (P08588 whole entry): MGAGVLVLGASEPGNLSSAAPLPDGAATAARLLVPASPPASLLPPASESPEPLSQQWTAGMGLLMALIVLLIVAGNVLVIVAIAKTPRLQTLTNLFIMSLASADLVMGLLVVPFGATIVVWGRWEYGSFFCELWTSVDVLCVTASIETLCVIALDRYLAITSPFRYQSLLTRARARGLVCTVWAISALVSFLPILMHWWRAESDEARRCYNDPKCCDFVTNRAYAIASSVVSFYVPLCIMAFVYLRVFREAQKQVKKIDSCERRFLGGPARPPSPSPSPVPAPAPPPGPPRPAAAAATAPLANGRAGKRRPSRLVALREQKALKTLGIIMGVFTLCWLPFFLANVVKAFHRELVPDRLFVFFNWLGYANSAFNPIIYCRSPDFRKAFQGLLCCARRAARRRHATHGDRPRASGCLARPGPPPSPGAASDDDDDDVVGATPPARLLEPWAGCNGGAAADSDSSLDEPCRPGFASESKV
From the text: as §2

[17] = target: T12, 5-HT1A (Homo sapiens, UniProt P08908); assay: In vitro pharmacology panel (Eurofins); format: binding; conditions: read-out: activity (% of DMSO control)
T12 construct: purchased Eurofins (Cerep/DiscoverX SafetyScreen44 in vitro pharmacology panel)
From the text: as §2

[18] = target: T13, D1 (Homo sapiens, UniProt P21728); assay: In vitro pharmacology panel (Eurofins); format: binding; conditions: read-out: activity (% of DMSO control)
T13 construct: purchased Eurofins (Cerep/DiscoverX SafetyScreen44 in vitro pharmacology panel)
T13 sequence (P21728 whole entry): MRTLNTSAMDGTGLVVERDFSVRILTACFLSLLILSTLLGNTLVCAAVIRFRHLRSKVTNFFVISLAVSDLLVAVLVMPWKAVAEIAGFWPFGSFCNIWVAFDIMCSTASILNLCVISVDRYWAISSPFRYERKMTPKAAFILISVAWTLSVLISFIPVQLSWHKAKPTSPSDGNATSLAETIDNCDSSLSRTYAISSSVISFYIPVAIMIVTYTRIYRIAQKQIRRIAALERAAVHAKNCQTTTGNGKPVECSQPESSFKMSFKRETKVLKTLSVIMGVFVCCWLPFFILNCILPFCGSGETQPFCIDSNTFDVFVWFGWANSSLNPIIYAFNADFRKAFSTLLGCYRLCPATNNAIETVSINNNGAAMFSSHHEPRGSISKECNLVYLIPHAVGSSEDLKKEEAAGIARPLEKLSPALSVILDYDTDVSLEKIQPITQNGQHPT
From the text: as §2

[19] = target: T14, M2 (Homo sapiens, UniProt P08172); assay: In vitro pharmacology panel (Eurofins); format: binding; conditions: read-out: activity (% of DMSO control)
T14 construct: purchased Eurofins (Cerep/DiscoverX SafetyScreen44 in vitro pharmacology panel)
From the text: as §2

[20] = target: T15, norepinephrine transporter (Homo sapiens, UniProt P23975); assay: In vitro pharmacology panel (Eurofins); format: binding; conditions: read-out: activity (% of DMSO control)
T15 construct: purchased Eurofins (Cerep/DiscoverX SafetyScreen44 in vitro pharmacology panel)
From the text: as §2

[21] = target: T16, 5-HT1B (Rattus norvegicus, UniProt P28564); assay: In vitro pharmacology panel (Eurofins); format: binding; conditions: read-out: activity (% of DMSO control)
T16 construct: purchased Eurofins (Cerep/DiscoverX SafetyScreen44 in vitro pharmacology panel)
From the text: as §2

[22] = target: T17, CB1 (Homo sapiens, UniProt P21554); assay: In vitro pharmacology panel (Eurofins); format: binding; conditions: read-out: activity (% of DMSO control)
T17 construct: purchased Eurofins (Cerep/DiscoverX SafetyScreen44 in vitro pharmacology panel)
From the text: as §2

[23] = target: T18, V1 a (Homo sapiens, UniProt P37288); assay: In vitro pharmacology panel (Eurofins); format: binding; conditions: read-out: activity (% of DMSO control)
T18 construct: purchased Eurofins (Cerep/DiscoverX SafetyScreen44 in vitro pharmacology panel)
From the text: as §2

[24] = target: T19, δ (DOP) (Homo sapiens, UniProt P41143); assay: In vitro pharmacology panel (Eurofins); format: binding; conditions: read-out: activity (% of DMSO control)
T19 construct: purchased Eurofins (Cerep/DiscoverX SafetyScreen44 in vitro pharmacology panel)
From the text: as §2

[25] = target: T20, A2A (Homo sapiens, UniProt P29274); assay: In vitro pharmacology panel (Eurofins); format: binding; conditions: read-out: activity (% of DMSO control)
T20 construct: purchased Eurofins (Cerep/DiscoverX SafetyScreen44 in vitro pharmacology panel)
T20 sequence (P29274 whole entry): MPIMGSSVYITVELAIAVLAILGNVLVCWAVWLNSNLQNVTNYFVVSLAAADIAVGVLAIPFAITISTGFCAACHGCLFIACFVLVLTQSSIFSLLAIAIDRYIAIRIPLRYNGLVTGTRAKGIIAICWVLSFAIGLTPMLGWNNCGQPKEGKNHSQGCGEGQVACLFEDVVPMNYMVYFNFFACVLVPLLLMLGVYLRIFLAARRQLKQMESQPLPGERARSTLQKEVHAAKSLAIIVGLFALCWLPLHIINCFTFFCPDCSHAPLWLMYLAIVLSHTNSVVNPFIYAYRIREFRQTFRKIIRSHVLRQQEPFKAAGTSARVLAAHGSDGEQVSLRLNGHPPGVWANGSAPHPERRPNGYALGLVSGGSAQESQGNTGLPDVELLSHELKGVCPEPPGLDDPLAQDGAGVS
From the text: as §2

[26] = target: T21, D2S (Homo sapiens, UniProt P14416); assay: In vitro pharmacology panel (Eurofins); format: binding; conditions: read-out: activity (% of DMSO control)
T21 construct: purchased Eurofins (Cerep/DiscoverX SafetyScreen44 in vitro pharmacology panel)
From the text: as §2

[27] = target: T22, CB2 (Homo sapiens, UniProt P34972); assay: In vitro pharmacology panel (Eurofins); format: binding; conditions: read-out: activity (% of DMSO control)
T22 construct: purchased Eurofins (Cerep/DiscoverX SafetyScreen44 in vitro pharmacology panel)
From the text: as §2

[28] = target: T23, H2 (Homo sapiens, UniProt P25021); assay: In vitro pharmacology panel (Eurofins); format: binding; conditions: read-out: activity (% of DMSO control)
T23 construct: purchased Eurofins (Cerep/DiscoverX SafetyScreen44 in vitro pharmacology panel)
T23 sequence (P25021 whole entry): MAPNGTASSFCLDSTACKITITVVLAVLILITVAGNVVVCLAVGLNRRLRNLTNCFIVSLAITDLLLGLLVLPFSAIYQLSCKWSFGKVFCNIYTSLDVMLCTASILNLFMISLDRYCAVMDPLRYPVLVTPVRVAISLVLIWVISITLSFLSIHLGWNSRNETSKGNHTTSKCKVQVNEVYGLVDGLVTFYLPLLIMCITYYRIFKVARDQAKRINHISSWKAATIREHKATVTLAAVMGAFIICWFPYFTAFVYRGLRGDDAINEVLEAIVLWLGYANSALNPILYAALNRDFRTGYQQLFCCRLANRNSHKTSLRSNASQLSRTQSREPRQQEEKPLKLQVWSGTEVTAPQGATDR
From the text: as §2

[29] = target: T24, α1A (Homo sapiens, UniProt P35348); assay: In vitro pharmacology panel (Eurofins); format: binding; conditions: read-out: activity (% of DMSO control)
T24 construct: purchased Eurofins (Cerep/DiscoverX SafetyScreen44 in vitro pharmacology panel)
From the text: as §2

[30] = target: T25, M3 (Homo sapiens, UniProt P20309); assay: In vitro pharmacology panel (Eurofins); format: binding; conditions: read-out: activity (% of DMSO control)
T25 construct: purchased Eurofins (Cerep/DiscoverX SafetyScreen44 in vitro pharmacology panel)
From the text: as §2

[31] = target: T26, GR (Homo sapiens, UniProt P04150); assay: In vitro pharmacology panel (Eurofins); format: binding; conditions: read-out: activity (% of DMSO control)
T26 construct: purchased Eurofins (Cerep/DiscoverX SafetyScreen44 in vitro pharmacology panel)
From the text: as §2

[32] = target: T27, α2A (Homo sapiens, UniProt P08913); assay: In vitro pharmacology panel (Eurofins); format: binding; conditions: read-out: activity (% of DMSO control)
T27 construct: purchased Eurofins (Cerep/DiscoverX SafetyScreen44 in vitro pharmacology panel)
From the text: as §2

[33] = target: T28, N neuronal α4β2 (Homo sapiens, UniProt P17787+P43681); assay: In vitro pharmacology panel (Eurofins); format: binding; conditions: read-out: activity (% of DMSO control)
T28 construct: purchased Eurofins (Cerep/DiscoverX SafetyScreen44 in vitro pharmacology panel)
T28 sequence (P43681 29-627 limits assumed): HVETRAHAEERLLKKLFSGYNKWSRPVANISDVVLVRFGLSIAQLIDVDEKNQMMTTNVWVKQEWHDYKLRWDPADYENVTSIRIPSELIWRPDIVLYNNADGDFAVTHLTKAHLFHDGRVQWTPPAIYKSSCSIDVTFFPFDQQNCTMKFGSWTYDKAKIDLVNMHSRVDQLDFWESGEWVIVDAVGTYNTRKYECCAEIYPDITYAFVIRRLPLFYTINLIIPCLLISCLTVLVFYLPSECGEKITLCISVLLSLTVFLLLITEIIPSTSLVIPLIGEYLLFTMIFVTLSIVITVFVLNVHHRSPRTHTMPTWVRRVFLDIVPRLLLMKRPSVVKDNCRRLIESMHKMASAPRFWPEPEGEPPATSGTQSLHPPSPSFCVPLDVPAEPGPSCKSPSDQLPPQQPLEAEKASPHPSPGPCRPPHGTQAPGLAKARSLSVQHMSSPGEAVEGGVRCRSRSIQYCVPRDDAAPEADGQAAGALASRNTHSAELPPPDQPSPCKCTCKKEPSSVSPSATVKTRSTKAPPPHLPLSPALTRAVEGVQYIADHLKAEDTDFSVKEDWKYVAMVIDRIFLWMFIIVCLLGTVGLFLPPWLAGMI
T28 sequence (P17787 26-502): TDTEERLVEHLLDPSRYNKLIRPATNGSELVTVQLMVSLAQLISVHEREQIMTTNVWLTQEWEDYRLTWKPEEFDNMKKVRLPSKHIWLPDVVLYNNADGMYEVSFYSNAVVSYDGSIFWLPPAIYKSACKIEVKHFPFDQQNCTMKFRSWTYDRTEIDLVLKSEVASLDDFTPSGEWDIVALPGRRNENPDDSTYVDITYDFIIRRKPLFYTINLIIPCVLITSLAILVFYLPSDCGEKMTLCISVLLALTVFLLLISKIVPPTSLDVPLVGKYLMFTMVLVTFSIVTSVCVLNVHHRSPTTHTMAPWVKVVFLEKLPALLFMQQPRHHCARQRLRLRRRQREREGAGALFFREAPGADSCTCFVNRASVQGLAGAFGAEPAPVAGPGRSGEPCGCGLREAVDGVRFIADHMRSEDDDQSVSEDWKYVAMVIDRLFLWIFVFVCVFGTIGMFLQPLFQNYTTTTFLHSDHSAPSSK
From the text: as §2

[34] = target: T29, MAO-A (Rattus norvegicus, UniProt P21396); assay: In vitro pharmacology panel (Eurofins); format: binding; conditions: read-out: activity (% of DMSO control)
T29 construct: purchased Eurofins (Cerep/DiscoverX SafetyScreen44 in vitro pharmacology panel)
T29 sequence (P21396 whole entry): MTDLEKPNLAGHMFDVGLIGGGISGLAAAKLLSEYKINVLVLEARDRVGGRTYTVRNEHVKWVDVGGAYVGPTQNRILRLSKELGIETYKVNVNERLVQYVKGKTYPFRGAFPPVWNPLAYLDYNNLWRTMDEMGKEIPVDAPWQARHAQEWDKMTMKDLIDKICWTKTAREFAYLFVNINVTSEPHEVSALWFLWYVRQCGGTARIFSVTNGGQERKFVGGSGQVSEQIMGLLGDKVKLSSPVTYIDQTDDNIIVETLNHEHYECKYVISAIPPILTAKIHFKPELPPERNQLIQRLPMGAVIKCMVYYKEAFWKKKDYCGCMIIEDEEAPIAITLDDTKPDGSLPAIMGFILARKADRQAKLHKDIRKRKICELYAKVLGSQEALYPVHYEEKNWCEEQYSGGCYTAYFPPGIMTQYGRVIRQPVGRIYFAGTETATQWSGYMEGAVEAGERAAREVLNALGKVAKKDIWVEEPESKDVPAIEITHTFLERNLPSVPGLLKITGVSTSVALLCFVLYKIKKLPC
From the text: as §2

[35] = target: T30, 5-HT2B (Homo sapiens, UniProt P41595); assay: In vitro pharmacology panel (Eurofins); format: binding; conditions: read-out: activity (% of DMSO control)
T30 construct: purchased Eurofins (Cerep/DiscoverX SafetyScreen44 in vitro pharmacology panel)
From the text: as §2

[36] = L. infantum MHOM/BR/2007/WC (L3015)
[37] = L. infantum MHOM/ES/2016/LLM-2346
[38] = L. infantum MHOM/FR/96/LEM3323 Cl4 MIL-R (miltefosine resistant)
[39] = L. infantum MHOM/FR/96/LEM3323 Cl4 PM-R (paromomycin resistant)
[40] = L. infantum MHOM/MA/67/ITMAP263

## Cc1[nH]c2nc(N)nc(C)c2c1-c1ccc(C#N)c2c1OCO2 [DNDI-6174]
[1]
  CC50: > 63000 nM
[2]
  pKa (measured): 5.58
[2]; octanol-pH 7.4 buffer
  Log D7.4 (measured): 2.57
[2]; octanol/pH 7.4 buffer, pH 7.4, octanol-pH 7.4 buffer, read-out: Log D7.4 (measured)
  logD: 2.6
[2]; read-out: pKa (measured)
  pKa: 5.6
[3]
  EC50: 12 nM
  EC90: 39 nM
[4]; L. major MHOM/IL/81/Friedlin
  EC50: 90 nM
  EC90: 900 nM
[4]; L. major MHOM/SA/85/JISH118
  EC50: 740 nM
  EC90: 11400 nM
[5]; [36]
  EC50: 70 nM
  EC90: 180 nM
[5]; [37]
  EC50: 210 nM
  EC90: 1520 nM
[5]; L. infantum MHOM/FR/96/LEM3323
  EC50: 50 nM
  EC90: 180 nM
[5]; [38]
  EC50: 70 nM
  EC90: 220 nM
[5]; [39]
  EC50: 80 nM
  EC90: 170 nM
[5]; [40]
  EC50: 160 nM
  EC90: 440 nM
[6]
  inhibition at 200 µM: < 20%
[7]
  remaining activity at 10 µM: 102%
[8]
  remaining activity at 10 µM: 60.6%
[9]
  remaining activity at 10 µM: 91.8%
[10]
  remaining activity at 10 µM: 103%
[11]
  remaining activity at 10 µM: 94.3%
[12]
  remaining activity at 10 µM: 126%
[13]
  remaining activity at 10 µM: 91.5%
[14]
  remaining activity at 10 µM: 93.9%
[15]
  remaining activity at 10 µM: 69.9%
[16]
  remaining activity at 10 µM: 113%
[17]
  remaining activity at 10 µM: 107%
[18]
  remaining activity at 10 µM: 63.1%
[19]
  remaining activity at 10 µM: 92.9%
[20]
  remaining activity at 10 µM: 81.9%
[21]
  remaining activity at 10 µM: 91.4%
[22]
  remaining activity at 10 µM: 104%
[23]
  remaining activity at 10 µM: 101%
[24]
  remaining activity at 10 µM: 102%
[25]
  remaining activity at 10 µM: 83.8%
[26]
  remaining activity at 10 µM: 77.6%
[27]
  remaining activity at 10 µM: 96.1%
[28]
  remaining activity at 10 µM: 120%
[29]
  remaining activity at 10 µM: 25.1%
[30]
  remaining activity at 10 µM: 98.5%
[31]
  remaining activity at 10 µM: 93%
[32]
  remaining activity at 10 µM: 60.3%
[33]
  remaining activity at 10 µM: 100%
[34]
  remaining activity at 10 µM: 94.3%
[35]
  remaining activity at 10 µM: 81.4%

Reference: paper PMC7615677 (Science translational medicine, 2023)
